Assay results reported in patent US20230338342A1, “METHODS OF TREATING RIBONUCLEOTIDE REDUCTASE-RELATED DISEASES WITH A RIBONUCLEOTIDE REDUCTASE INHIBITOR” (Taiho Pharmaceutical Co., Ltd., priority 2020, published 2023).

Assays:
RNR = target: T1, RNR (Homo sapiens, UniProt P23921+P31350); settings: background art; cited from earlier work
T1 sequence (P23921 1-792): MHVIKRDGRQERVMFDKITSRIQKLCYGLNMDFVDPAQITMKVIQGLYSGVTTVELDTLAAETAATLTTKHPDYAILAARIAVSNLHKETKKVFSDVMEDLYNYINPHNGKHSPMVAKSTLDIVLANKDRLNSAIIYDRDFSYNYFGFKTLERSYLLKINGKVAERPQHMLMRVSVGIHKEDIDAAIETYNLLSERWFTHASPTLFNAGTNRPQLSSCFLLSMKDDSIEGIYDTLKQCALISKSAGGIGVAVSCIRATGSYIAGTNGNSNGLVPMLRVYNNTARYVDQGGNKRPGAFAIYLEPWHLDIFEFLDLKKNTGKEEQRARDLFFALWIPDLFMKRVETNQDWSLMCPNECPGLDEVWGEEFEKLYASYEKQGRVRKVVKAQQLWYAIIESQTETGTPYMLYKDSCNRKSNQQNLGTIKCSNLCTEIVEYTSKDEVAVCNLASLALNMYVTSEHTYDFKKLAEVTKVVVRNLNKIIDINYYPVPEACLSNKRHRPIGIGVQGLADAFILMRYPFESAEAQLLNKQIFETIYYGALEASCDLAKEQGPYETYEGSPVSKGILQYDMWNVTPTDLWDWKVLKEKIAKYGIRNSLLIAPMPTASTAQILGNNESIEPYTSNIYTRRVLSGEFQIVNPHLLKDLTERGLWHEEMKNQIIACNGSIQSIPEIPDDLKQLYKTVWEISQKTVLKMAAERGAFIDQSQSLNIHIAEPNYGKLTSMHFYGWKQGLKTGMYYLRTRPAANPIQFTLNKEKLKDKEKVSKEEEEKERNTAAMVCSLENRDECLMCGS
T1 sequence (P31350 1-389): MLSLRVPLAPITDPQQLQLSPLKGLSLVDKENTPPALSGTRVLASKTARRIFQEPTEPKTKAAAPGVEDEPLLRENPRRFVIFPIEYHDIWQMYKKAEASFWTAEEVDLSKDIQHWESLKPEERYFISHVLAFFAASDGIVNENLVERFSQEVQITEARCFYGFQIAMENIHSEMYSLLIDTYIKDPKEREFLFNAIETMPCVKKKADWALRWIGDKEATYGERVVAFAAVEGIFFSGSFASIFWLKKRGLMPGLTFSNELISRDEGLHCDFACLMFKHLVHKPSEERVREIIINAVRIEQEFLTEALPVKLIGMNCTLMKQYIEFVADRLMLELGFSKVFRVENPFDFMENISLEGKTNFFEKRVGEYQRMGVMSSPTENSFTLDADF

[1] = tested on: Human acute myelocytic leukemia (AML) cell line MV-4-11 cells; assay: Anti-tumor effect in MV-4-11 xenograft under various dosing regimens; type: in vivo, male nude mice; settings: for effect of reducing tumor volume (relative tumor volume, RTV): Day 15, vs Control Group
Experimental: (§1) Anti-tumor Effect and body weight change in Various Dosing Regimens Human acute myelocytic leukemia (AML) cell line MV-4-11 cells (American Type Culture Collection CRL-9591™) were implanted in the right thorax of male nude mice (CLEA Japan, Inc.). After implantation of the tumor, the major axis (mm) and minor axis (mm) of the tumor were measured, and tumor volume (TV) was calculated for each mouse. Then, the mice were assigned to the following groups, Control group (○), Continuous Dosing Group (●: 100 mg/kg/day; ◊: 150 mg/kg/day) and 1-week ON+1-week OFF Dosing Group (▲: 200 mg/kg/day; ◆: 300 mg/kg/day), so that the average TV of each group was equivalent. The day in which the grouping (n=5) was conducted was taken as Day 0.
5-chloro-2-(N-((1S,2R)-2-(6-fluoro-2,3-dimetylphenyl)-1-(5-oxo-4,5-dihydro-1,3,4-o xadiazol-2-yl)propyl)sulfamoyl)benzamide (Compound A) was suspended in 5 mg/mL hypromellose solution to provide appropriate test samples for 100 mg/kg, 150 mg/kg, 200 mg/kg, and 300 mg/kg dosing regimen. Animals of the Control group were not treated.
To mice in the Continuous Dosing Group, 100 mg/kg/day or 150 mg/kg/day of Compound A was orally administered once daily from Day 1 to Day 14. The total dosage for mice in the Continuous Dosing Group administered 100 mg/kg/day (Group C-1) is 1400 mg/kg, and the total dosage for mice in the Continuous Dosing Group administered 150 mg/kg/day (Group C-2) is 2100 mg/kg.
To mice in the 1-week ON+1-week OFF Dosing Group, 200 mg/kg/day or 300 mg/ kg/day of Compound A was orally administered once daily from Day 1 to Day 7, and not administered from Day 8 to Day 14, which corresponds to a resting period of 7 days (1 week) for recovery. The total dosage for mice in the 1-week ON+1-week OFF Dosing Group administered 200 mg/kg/day (Group I-1) is 1400 mg/kg, and the total dosage for mice in the 1-week ON+1-week OFF Dosing Group administered 300 mg/ kg/day (Group I-2) are 2100 mg/kg.
On Days 4, 8, 11 and 15, using the following formula: TV (mm^3) = (major axis x minor axis^2) / 2, relative tumor volume (RTV) was calculated as an index of anti-tumor effect during the dosing period for each group (FIG. 1).

[2] = Body weight change as index of toxicity in MV-4-11 tumor-bearing mice; type: in vivo, male nude mice; settings: up to Day 15
Experimental: as §1
5-chloro-2-(N-((1S,2R)-2-(6-fluoro-2,3-dimetylphenyl)-1-(5-oxo-4,5-dihydro-1,3,4-o xadiazol-2-yl)propyl)sulfamoyl)benzamide (Compound A) was suspended in 5 mg/mL hypromellose solution to provide appropriate test samples for 100 mg/kg, 150 mg/kg, 200 mg/kg, and 300 mg/kg dosing regimen. Animals of the Control group were not treated. […]
On the other hand, the body weight (BW) was measured on Days 4, 8, 11 and 15, and the average body weight change (BW change, %) relative to the body weight on Day 0 was calculated by the following formula, as an index of toxicity during the dosing period: BW change (%) = [(BW on Day n) - (BW on Day 0)] / (BW on Day 0) x 100.

22 cell lines = assay: Cell proliferation assay (CellTiter-Glo) and correlation with SLFN11 mRNA expression; type: cell-based; settings: 10 micro mol/L, 3 days of exposure, Pearson's correlation
Excerpt: The HEL, NUGC-3, and RPMI8226 cell lines were obtained from the Japanese Collection of Research Bioresources. The 786-O, CFPAC-1, DU145, HCC1599, HCC1806, HCC38, HCT116, HL-60, K-562, MSTO-211H, MV-4-11, NCI-H460, NCI-H2170, and THP-1 cell lines were obtained from the ATCC. The A2780 and COLO 792 cell lines were obtained from the European Collection of Authenticated Cell Cultures. The A549, A673, and MCF-7 cell lines were obtained from DS Pharma Biomedical Co., Ltd.
Cell proliferation assay was performed as reported previously (Hasako, S., et al. Mol Cancer Ther 17, 1648-1658 (2018)). Briefly, cells were plated and incubated for 1 day, followed by 3 days of exposure to the compound. After exposure to Compound A, viable cells were detected by using the CellTiter-Glo luminescent cell viability assay (Promega). The experiment was performed in triplicates.
Correlation analysis of SLFN11 expression and Compound A cytotoxicity was performed using Pearson’s correlation coefficient (P < 0.05) in JMP 13 software. The gene expression data of cell lines were available online CCLE (http://www.broadinstitute.org/ccle/home). Compound A cytotoxicity data from 22 cell lines in Table 5 were used for correlation analysis (data for correlation was not shown).

A673 cells [3] = assay: Cell proliferation assay in A673 cells treated with siRNA against SLFN11; type: cell-based; settings: siSLFN11-1 and siSLFN11-2 vs siControl, 72 h treatment
Experimental: (§2) A673 cells were transfected with 1 nM siRNAs for 24 h using Lipofectamine® RNAiMAX Reagent (Thermo Fisher Scientific Inc.) and then re-seeded onto a 96-well plate for cell proliferation assay and caspase induction assay and onto dishes for immunoblotting analysis. siRNAs were obtained from Thermo Fisher Scientific Inc. as follows: Silencer® Select Negative Control #1 siRNA (#4390843 used as siControl), SLFN11 Silencer® Select Pre-designed siRNA (#s40703 used as siSLFN11-1, and #s40704 as siSLFN11-2).
Cell proliferation assay was performed as reported previously (Hasako, et al., ibid.). Briefly, cells treated with siRNAs for 24 h were plated onto 96 well plate and incubated for 24 h, followed by 3 days of exposure to the compound. After compound exposure, viable cells were detected by using the CellTiter-Glo luminescent cell viability assay (Promega).

A673 cells [4] = assay: Caspase induction analysis (Caspase-Glo 3/7) in A673 cells treated with siRNA against SLFN11; type: cell-based; settings: A673 cells transfected with siRNA against SLFN11, 24 h treatment
Experimental: as §2
Caspase induction analysis was performed as reported previously (Hasako., et al., ibid). Briefly, the cells with siRNAs for 24 h were seeded onto 96 well plate, incubated for24 h, and then treated with Compound A for 24 h. Caspase induction was detected by using the Caspase-Glo 3/7 assay (Promega). Relative caspase-3/7 activation was calculated by applying the correction with respect to cell number. The experiment was performed in triplicates.

NC(=O)NO [HU, hydroxyurea, reference compound]
RNR inhibitory activity (RNR): weak

Cc1ccc(F)c([C@@H](C)[C@H](NS(=O)(=O)c2ccc(Cl)cc2C(N)=O)c2n[nH]c(=O)o2)c1C [Compound A, 5-chloro-2-(N-((1S,2R)-2-(6-fluoro-2,3-dimetylphenyl)-1-(5-oxo-4,5-dihydro-1,3,4-oxadiazol-2-yl)propyl)sulfamoyl)benzamide]
effect of reducing tumor volume (relative tumor volume, RTV) ([1]; 1-week ON+1-week OFF Dosing Group, 200 or 300 mg/kg/day orally once daily Day 1 to Day 7, rest Day 8 to Day 14): shows the effect of reducing tumor volume compared with Control Group | effect of reducing tumor volume (relative tumor volume, RTV) ([1]; Continuous Dosing Group, 100 or 150 mg/kg/day orally once daily Day 1 to Day 14): shows the effect of reducing tumor volume compared with Control Group | effect of reducing tumor volume, Group I-1 compared with Group C-1 ([1]; total dosage 1400 mg/kg, I-1 200 mg/kg/day 1-week ON+1-week OFF vs C-1 100 mg/kg/day continuous): tends to be higher than Group C-1, though the difference is not statistically significant | effect of reducing tumor volume, Group I-2 compared with Group C-2 ([1]; total dosage 2100 mg/kg, I-2 300 mg/kg/day 1-week ON+1-week OFF vs C-2 150 mg/kg/day continuous): seems to be similar | body weight change (BW change) ([2]; 1-week ON+1-week OFF Dosing Group (Groups I-1 and I-2), 200 or 300 mg/kg/day orally Day 1 to Day 7): shows drastic recovery in body weight | body weight change (BW change) ([2]; Continuous Dosing Group (Groups C-1 and C-2), 100 or 150 mg/kg/day orally Day 1 to Day 14): does not show satisfactorily recovery in terms of body weight loss | correlation between SLFN11 mRNA expression and relative cell growth (%) (22 cell lines): a significant correlation | cytotoxic effect (cell growth) after SLFN11 knockdown (A673 cells [3]): SLFN11 knockdown significantly suppressed the cytotoxic effect | caspase-3/7 activation after SLFN11 knockdown (A673 cells [4]): suppression of Compound A-induced caspase-3/7 activation | RNR inhibitory activity (RNR): potent
